# Key:
# Test in all cases: relative IC50 (inflection point of fitted viability curve, relative to fitted max inhibition); higher = less sensitive
# Conditions in all cases: 72 h
# [1] = system: DERL-7 (IL-2 2.5 ng/mL)
# Method: (§1)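 Drug sensitivity and resistance testing: 5 concentrations over a 10,000-fold range, 72 h at 37 °C, viability by CellTiter-Glo normalised to DMSO and benzethonium chloride controls. IC50 is the inflection point of a logistic fit (min fixed at 0, max fitted), so it is relative to the fitted maximal inhibition. Kept only where fitted max inhibition is at least 50%.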
# [2] = system: KAI3 (IL-2 2.5 ng/mL)
# Method: as §1
# [3] = system: KHYG-1 (IL-2 2.5 ng/mL)
# Method: as §1
# [4] = system: NK-92 (IL-2 2.5 ng/mL)
# Method: as §1
# [5] = system: NKL (IL-2 2.5 ng/mL)
# Method: as §1
# [6] = system: normal primary NK cells, pool 1 (3 donors), resting (IL-2 0 ng/mL)
# Method: as §1
# [7] = system: normal primary NK cells, pool 2 (3 donors) (IL-2 2.5 ng/mL)
# Method: as §1
# [8] = system: IMC-1 (IL-2 20 ng/mL)
# Method: as §1
# [9] = system: NK-YS (IL-2 2.5 ng/mL)
# Method: as §1
# [10] = system: SNK-6 (IL-2 2.5 ng/mL)
# Method: as §1
# [11] = system: YT (IL-2 2.5 ng/mL)
# Method: as §1
# [12] = system: normal primary NK cells, pool 1 (3 donors) (IL-2 2.5 ng/mL)
# Method: as §1
# [13] = system: normal primary NK cells, pool 3 (3 donors) (IL-2 2.5 ng/mL)
# Method: as §1
SMILES,relative IC50 [1] [µM],relative IC50 [2] [µM],relative IC50 [3] [µM],relative IC50 [4] [µM],relative IC50 [5] [µM],relative IC50 [6] [µM],relative IC50 [7] [µM],relative IC50 [8] [µM],relative IC50 [9] [µM],relative IC50 [10] [µM],relative IC50 [11] [µM],relative IC50 [12] [µM],relative IC50 [13] [µM]
Cc1c(NC(=O)OC[C@@H]2COCCN2)cn2ncnc(Nc3ccc4c(cnn4Cc4cccc(F)c4)c3)c12,2.73,3.18,2.23,2.4,3.11,3.97,3.09,–,–,–,–,–,–
COc1ccc(S(=O)(=O)Nc2cccnc2Nc2ccc(O)cc2)cc1 [ABT-751],0.294,0.243,0.197,0.122,0.381,–,–,0.283,0.135,0.0761,0.207,–,–
NC(=O)c1cccc2cn(-c3ccc([C@@H]4CCCNC4)cc3)nc12 [Niraparib],2.17,1.58,2.23,1.92,0.219,–,–,1.8,1.49,3.14,–,–,–
CC(C)(C)Cn1c(N)nc2ccc(-c3[nH]c(C(C)(C)C)nc3-c3ccc(F)cc3)nc21 [Ralimetinib],–,–,–,1.96,1.6,4,–,> 10,–,–,2.22,3.57,–
Oc1c2ccccc2c2c3c(cccc13)N=N2,2.57,10.6,9.7,4.98,4.96,–,–,–,13.2,12.2,–,11,–
Cn1nnc2c(C(N)=O)ncn2c1=O [Temozolomide],–,–,–,–,25.7,> 100,–,15.8,–,1.61,–,–,–
Nc1nc(NC2CC2)cc(-c2cccc(Cl)c2Cl)n1 [TH588],7.9,1.73,2.05,1.55,2.18,–,–,6.38,0.854,0.809,2.12,–,–
c1cc(CN2CCCNCCNCCCNCC2)ccc1CN1CCCNCCNCCCNCC1 [Plerixafor],–,–,–,–,–,–,> 10,–,–,–,–,–,> 10
O=C(Nc1c[nH]nc1-c1nc2ccc(CN3CCOCC3)cc2[nH]1)NC1CC1 [AT9283],0.0411,0.0698,0.0472,0.0658,0.0854,> 1,–,0.078,0.0419,0.0397,0.135,–,–
COc1ccccc1S(=O)(=O)Nc1ccc2c(c1)CN(C)C(=O)N2 [PFI-1],1.08,–,1.64,–,1.08,–,1.78,2.97,1.31,–,2.31,–,–
Nc1ccn([C@@H]2O[C@H](CO)[C@@H](O)C2(F)F)c(=O)n1 [Gemcitabine],0.0109,0.00517,0.00214,0.00277,0.00073,–,–,0.00308,0.00467,0.00648,0.0153,–,–
COc1cc2ncnc(Nc3ccc(F)c(Cl)c3)c2cc1NC(=O)/C=C/CN1CCCCC1 [Dacomitinib],–,–,–,–,–,0.404,–,–,–,–,–,–,–

# Source: the supplement of paper PMC5908809
